Where no end group is shown, it is not given here.
Legend:
[1] = target: T1, LRP1 (Mus musculus, UniProt Q91ZX7); experiment: immunofluorescence imaging of cochleae after intravenous injection (distribution, colocalization with LRP1); type: in vivo; conditions: i.v. injection
T1 construct: from tissue; host or cells: cochleae of C57BL/6J mice
Description: (§1) To classify the roles of LRP1 in the transportation of IETP2 to the inner ear, the binding affinity of IETP2 to LRP1 was first determined using biolayer interferometry (BLI, Fig. 2d). […] SV was further imaged from another view. […] The Manders’ colocalization coefficients (MCCs) of LRP1 and IETP2 in IHCs, ECs, SP cells, and SGNs were 0.71515, 0.64284, 0.56482, and 0.70552, respectively.
Four-week-old C57BL/6J mice of either sex were harvested 50 min and 2 h post-injection. Cochleae were fixed in 4% paraformaldehyde at 4 °C for 8 h and decalcified in 4% EDTA for 4 days at room temperature (RT). Parts of the cochleae were dissected into pieces containing the basilar membrane (BM), organ of Corti (OC) and stria vascularis (SV) from the apex to the hook region and then used for whole-mount immunofluorescence. Other parts of the cochleae were dehydrated using a graded sucrose solution (15% and 30%; 3 h for each grade) at RT, embedded in optimum cutting temperature (OCT) compound for 5 h at RT, frozen for 1 h at −20 °C and sectioned with a freezing microtome (Leica CM1900) at an 8 μm thickness.
For whole-mount and cross-section immunofluorescence, tissues were incubated with 0.1% Triton X-100 and blocked with 10% donkey serum for 2 h at RT before the application of the primary antibodies. […]

[2] = tested on: mouse cochleae; experiment: in vivo and ex vivo fluorescence imaging of cochlear uptake; conditions: IETP2-Cy5.5, i.v., BALB/c nude mice
Text: To validate whether the selected IETPs could cross the BLB and to evaluate the inner ear-targeting efficacy, IETPs were covalently conjugated with the fluorescent dye Cy5.5 and intravenously injected into mice. In vivo and ex vivo fluorescence imaging of cochleae was used for evaluation. […] The IETP2 signal was visualized with in vivo fluorescence imaging (Fig. 2c). Compared to that in the brain and muscle, the signal of IETP2 detected in the cochleae was much stronger (Fig. 2c). […] Therefore, IETP2 was selected for the subsequent experiments.
BALB/c nude mice (4 weeks old, either sex) were divided into three groups (5 mice for each group). […] After the indicated times, the animals were anesthetized with isoflurane and subjected to live animal imaging (IVIS Lumina III, Caliper LifeSciences, MA, USA). The excitation/emission filter was set at 625/700 nm, and images were taken with an interval of 20 min post-injection. To validate the uptake efficiency of different IETPs, mice were sacrificed 1 h post-injection, and the cochleae were collected and imaged. […] The time-dependent uptake of IETP2 in mouse cochleae was assessed at a series of time points (1, 1.5, 2, and 2.5 h) with 3 mice at each time point for each group. Collected images were analyzed using Living Image software (IVIS Imaging System, 4.5.5).

[3] = tested on: C57BL/6J mice; experiment: ototoxicity evaluation by auditory brainstem response (ABR) testing; type: in vivo, mouse; conditions: 6 mice, 12 ears, 7- and 14-days post-administration
Description: Auditory brainstem response (ABR) testing was conducted in a standard soundproof chamber for animal use. Mice were anesthetized with a mixture of isoflurane (Keyue Life Science Co., Ltd.) and air via a respirator for animal use (Medical Supplies and Services Int., Ltd.) and an aquarium air pump (HAILEA, A00–5505). The final concentration of isoflurane was 2% at a flow rate of 1.5. Circulating heating pads were placed under the mice to maintain body temperature at 37 °C. ABRs were recorded with a Tucker Davis Technologies (TDT) RZ6 instrument, and the sound was delivered by a calibrated loudspeaker (TDT, MF1 2356).
For ABR testing, needle electrodes were inserted beneath the skin. The recording electrode was inserted at the vertex, the reference electrode was inserted at the pinna, and the ground electrode was inserted near the tail. The ABR stimuli were frequency-specific tone pips at frequencies from 1 kHz to 32 kHz with a duration of 5 ms (0.5 ms rise-fall delivered at 21.1/sec), and each response was amplified 10,000-fold with a filter passband of 100 Hz to 3 kHz and averaged over 1024 times. The signal started at 90 dB sound pressure level (SPL) with a step of 10 dB and decreased to 10 dB SPL at frequencies of 4, 8, 16, 24, and 32 kHz for mice. The threshold was defined as the lowest dB SPL with an identifiable and repeatable wave I for mice. […]

[4] = target: LRP1 (Homo sapiens, UniProt Q07954); experiment: biolayer interferometry (BLI) binding of IETP2 to LRP1; conditions: kinetic analysis, read-out: dissociation constant (KD) of IETP2 binding to LRP1
Text: Gly-Cy5.5 served as a negative control. d Kinetic analysis of IETP2 binding to LRP1. […] Scale bars: e, j, o 100 µm, y, z 50 µm, others 10 µm.)
as §1

[5] = tested on: pig cochleae; experiment: pig cochlear immunofluorescence imaging after intravenous injection; type: in vivo; conditions: IETP2 labeled with 5-TAMRA or Cy5.5, earlobe vein injection, 2 h post-injection
Description: To further test the generality of IETP2 in large mammals, IETP2 labeled with 5-TAMRA or Cy5.5 was injected into pigs via earlobe veins. Two hours post-injection, the pigs were sacrificed (Supplementary Figs. S5 and S6, representative images of three independent experiments).
The zoomed-in OC images in the white dotted rectangle in f.
Images from the IETP2-5-TAMRA injection group. […] Images from the 5-TAMRA injection group. […] The setting parameters for the microscope (including the excitation intensity and emission gain) remained consistent throughout the experiments. c. […] Images of pig cochleae injected with free Cy5.5 (2 h after injection). (DAPI: blue; LRP1: green; phalloidin: magenta. Scale bars for the overview of porcine cochlear mid turn are 200 µm; others are 10 µm.)

T1 sequence (Q91ZX7 20-4545): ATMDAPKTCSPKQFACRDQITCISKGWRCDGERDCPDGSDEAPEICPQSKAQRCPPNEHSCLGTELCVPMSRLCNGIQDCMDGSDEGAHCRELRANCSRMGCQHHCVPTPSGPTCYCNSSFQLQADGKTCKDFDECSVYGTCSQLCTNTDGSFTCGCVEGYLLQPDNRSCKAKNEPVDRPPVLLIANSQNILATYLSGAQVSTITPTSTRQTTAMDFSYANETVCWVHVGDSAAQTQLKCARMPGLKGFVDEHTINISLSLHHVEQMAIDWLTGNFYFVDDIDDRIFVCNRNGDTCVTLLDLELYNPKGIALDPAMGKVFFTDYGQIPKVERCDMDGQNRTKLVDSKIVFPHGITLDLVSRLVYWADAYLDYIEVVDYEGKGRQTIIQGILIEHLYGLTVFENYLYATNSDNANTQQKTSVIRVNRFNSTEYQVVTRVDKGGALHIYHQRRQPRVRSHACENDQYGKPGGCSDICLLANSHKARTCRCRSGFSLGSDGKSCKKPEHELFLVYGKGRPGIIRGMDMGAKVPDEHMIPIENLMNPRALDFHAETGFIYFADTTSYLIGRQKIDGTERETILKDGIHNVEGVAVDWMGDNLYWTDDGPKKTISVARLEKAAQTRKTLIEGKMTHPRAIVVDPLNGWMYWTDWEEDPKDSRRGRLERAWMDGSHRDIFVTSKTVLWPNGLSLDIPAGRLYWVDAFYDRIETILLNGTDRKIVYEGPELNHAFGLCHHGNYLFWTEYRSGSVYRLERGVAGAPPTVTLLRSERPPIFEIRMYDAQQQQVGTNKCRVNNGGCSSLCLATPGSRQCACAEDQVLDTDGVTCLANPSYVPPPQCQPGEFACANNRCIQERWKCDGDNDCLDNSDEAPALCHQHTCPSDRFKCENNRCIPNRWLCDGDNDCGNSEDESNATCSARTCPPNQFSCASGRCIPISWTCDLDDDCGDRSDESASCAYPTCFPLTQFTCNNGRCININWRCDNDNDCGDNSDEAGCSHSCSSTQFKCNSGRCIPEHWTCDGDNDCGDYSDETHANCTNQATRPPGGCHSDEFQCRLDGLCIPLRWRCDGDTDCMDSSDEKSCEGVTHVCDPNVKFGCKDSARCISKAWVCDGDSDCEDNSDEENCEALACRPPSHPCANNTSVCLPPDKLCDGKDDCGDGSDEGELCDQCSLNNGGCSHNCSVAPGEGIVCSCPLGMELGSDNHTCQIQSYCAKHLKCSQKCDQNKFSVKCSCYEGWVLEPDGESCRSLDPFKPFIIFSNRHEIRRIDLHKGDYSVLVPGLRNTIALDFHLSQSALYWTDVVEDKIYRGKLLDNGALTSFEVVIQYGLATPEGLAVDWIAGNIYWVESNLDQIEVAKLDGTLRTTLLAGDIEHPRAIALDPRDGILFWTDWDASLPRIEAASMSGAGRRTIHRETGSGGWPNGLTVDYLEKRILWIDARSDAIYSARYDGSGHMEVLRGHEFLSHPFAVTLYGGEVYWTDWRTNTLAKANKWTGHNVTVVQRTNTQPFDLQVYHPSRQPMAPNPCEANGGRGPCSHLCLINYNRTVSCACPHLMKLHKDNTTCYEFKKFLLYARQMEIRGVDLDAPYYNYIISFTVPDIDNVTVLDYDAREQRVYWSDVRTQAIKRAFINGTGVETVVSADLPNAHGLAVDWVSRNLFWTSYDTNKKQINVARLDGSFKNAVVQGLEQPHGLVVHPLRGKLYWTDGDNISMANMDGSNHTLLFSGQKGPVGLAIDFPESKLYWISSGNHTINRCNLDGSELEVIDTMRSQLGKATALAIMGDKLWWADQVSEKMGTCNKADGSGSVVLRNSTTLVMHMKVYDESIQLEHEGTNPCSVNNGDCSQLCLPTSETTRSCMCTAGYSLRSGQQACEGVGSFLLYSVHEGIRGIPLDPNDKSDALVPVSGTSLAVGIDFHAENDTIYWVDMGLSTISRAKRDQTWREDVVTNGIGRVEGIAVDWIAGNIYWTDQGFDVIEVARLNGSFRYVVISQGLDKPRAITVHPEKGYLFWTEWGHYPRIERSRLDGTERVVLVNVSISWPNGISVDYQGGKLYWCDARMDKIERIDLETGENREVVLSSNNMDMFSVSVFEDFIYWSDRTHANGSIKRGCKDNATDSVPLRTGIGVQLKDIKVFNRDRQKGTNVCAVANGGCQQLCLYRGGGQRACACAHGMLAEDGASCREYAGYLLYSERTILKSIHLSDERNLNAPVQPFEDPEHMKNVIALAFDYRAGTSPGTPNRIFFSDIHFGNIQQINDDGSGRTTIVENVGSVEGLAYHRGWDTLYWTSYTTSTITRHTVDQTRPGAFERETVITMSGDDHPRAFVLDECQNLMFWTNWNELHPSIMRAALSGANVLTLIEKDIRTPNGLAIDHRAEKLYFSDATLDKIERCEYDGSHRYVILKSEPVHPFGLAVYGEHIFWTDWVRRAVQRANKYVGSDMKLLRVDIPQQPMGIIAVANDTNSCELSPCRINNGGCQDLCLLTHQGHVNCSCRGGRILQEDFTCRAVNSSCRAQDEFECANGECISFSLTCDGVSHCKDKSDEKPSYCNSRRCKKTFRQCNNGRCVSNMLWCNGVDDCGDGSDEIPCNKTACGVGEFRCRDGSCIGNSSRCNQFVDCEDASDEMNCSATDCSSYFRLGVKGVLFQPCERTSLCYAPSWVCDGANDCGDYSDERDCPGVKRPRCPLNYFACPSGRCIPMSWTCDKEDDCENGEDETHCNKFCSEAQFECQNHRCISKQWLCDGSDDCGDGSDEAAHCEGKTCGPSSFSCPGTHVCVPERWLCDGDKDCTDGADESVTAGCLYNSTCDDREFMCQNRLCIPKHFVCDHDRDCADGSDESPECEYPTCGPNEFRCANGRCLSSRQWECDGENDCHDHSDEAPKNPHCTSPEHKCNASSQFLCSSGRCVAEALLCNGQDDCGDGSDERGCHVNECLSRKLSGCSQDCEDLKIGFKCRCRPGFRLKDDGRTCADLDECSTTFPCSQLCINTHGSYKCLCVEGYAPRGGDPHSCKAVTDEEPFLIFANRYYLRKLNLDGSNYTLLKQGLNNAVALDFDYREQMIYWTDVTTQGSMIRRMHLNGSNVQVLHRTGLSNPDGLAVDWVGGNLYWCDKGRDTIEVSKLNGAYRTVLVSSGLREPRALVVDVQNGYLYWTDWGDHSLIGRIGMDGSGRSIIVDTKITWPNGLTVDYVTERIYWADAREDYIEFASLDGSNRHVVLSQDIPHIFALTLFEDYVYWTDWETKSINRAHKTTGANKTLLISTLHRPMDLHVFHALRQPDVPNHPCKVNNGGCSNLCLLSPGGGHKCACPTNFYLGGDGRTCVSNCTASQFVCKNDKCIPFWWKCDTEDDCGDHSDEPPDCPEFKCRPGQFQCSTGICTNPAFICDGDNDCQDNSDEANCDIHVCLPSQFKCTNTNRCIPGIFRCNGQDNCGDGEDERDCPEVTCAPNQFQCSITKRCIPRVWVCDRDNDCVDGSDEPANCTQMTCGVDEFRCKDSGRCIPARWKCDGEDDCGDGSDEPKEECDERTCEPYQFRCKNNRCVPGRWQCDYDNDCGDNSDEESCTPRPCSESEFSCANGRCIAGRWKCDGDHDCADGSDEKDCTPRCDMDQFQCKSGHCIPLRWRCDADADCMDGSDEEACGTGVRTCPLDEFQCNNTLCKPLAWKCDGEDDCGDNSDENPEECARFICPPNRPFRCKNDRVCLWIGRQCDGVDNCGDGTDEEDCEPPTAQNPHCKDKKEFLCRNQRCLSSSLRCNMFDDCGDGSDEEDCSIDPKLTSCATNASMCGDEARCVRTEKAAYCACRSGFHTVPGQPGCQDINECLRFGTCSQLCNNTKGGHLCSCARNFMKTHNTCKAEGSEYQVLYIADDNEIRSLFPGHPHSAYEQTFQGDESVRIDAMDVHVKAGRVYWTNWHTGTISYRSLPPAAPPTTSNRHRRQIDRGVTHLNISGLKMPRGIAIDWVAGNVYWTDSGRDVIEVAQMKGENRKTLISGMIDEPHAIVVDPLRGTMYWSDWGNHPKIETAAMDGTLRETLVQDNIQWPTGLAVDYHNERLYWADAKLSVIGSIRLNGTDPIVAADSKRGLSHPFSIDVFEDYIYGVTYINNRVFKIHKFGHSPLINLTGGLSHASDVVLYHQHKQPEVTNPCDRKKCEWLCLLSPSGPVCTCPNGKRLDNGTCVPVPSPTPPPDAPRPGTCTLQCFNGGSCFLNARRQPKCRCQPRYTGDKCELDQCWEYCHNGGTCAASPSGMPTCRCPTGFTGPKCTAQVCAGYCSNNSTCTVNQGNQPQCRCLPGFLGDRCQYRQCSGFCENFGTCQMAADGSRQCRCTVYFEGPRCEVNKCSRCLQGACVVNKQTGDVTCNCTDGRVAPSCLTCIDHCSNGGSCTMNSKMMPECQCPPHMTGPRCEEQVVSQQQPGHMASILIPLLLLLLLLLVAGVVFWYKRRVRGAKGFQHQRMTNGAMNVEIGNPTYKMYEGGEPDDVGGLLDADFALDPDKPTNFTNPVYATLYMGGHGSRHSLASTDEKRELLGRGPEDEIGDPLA

signal in the cochleae compared to brain and muscle [2]	Kd [4] [µM]	transport into the inner ear of pigs [5]	Compound	distribution in cochleae, free dye [1]	ototoxicity (ABR thresholds) [3]
–	–	–	CCN1\C(=C/C=C/C=C/C2=[N+](CCCCCC(=O)O)c3ccc4c(S(=O)(=O)O)cc(S(=O)(=O)O)cc4c3C2(C)C)C(C)(C)c2c1ccc1c(S(=O)(=O)[O-])cc(S(=O)(=O)O)cc21 [Cy5.5]	limited distribution inside blood vessels in the SV and SGN regions	–
much stronger	0.738	could be transported into the inner ears	TFYGGRPKRNNFLRGIRSRGD [IETP2]	–	no obvious ototoxicity

— PMC9184653, “LDL receptor-related protein 1 (LRP1), a novel target for opening the blood-labyrinth barrier (BLB)” (Signal Transduction and Targeted Therapy, 2022)
